Experimental data published in US6828315B1, “1-Amino triazoloc4,3-a! quinazoline-5-ones and/or -5-thiones inhibiting phosphodiesterase IV” (Warner-Lambert LLC, priority 1999, dated 2004).

SMILES: O=c1c2cc(Br)ccc2n2c(N3CCCC3)nnc2n1CC1CCCC1 [Compound 65, 7-Bromo-4-cyclopentylmethyl-1-pyrrolidin-1-yl-4H-[1,2,4]triazolo[4,3-a]quinazolin-5-one]
- melting point: 155 °C

SMILES: CCCCn1c(=O)c2cc(Br)ccc2n2c(N3CCCC3)nnc12 [Compound 66, 7-Bromo-4-butyl-1-pyrrolidin-1-yl-4H-[1,2,4]triazolo[4,3-a]quinazolin-5-one]
- melting point: 135 °C

SMILES: O=c1c2cc(Br)ccc2n2c(N3CCCC3)nnc2n1CC(F)(F)F [Compound 67, 7-Bromo-1-pyrrolidin-1-yl-4-(2,2,2-trifluoro-ethyl)-4H-[1,2,4]triazolo[4,3-a]quinazolin-5-one]
- melting point: 202 °C

SMILES: O=c1c2cc(Br)ccc2n2c(N3CCCC3)nnc2n1CCO [Compound 68, 7-Bromo-4-(2-hydroxy-ethyl)-1-pyrrolidin-1-yl-4H-[1,2,4]triazolo[4,3-a]quinazolin-5-one]
- melting point: 240 °C

SMILES: C#CCn1c(=O)c2cc(Br)ccc2n2c(N3CCCC3)nnc12 [Compound 70, 7-Bromo-4-prop-2-ynyl-1-pyrrolidin-1-yl-4H-[1,2,4]triazolo[4,3-a]quinazolin-5-one]
- melting point: 204 °C

SMILES: O=c1c2cc(Br)ccc2n2c(N3CCCC3)nnc2n1CCOc1ccccc1 [Compound 71, 7-Bromo-4-(2-phenoxy-ethyl)-1-pyrrolidin-1-yl-4H-[1,2,4]triazolo[4,3-a]quinazolin-5-one]
- melting point: 171 °C

SMILES: O=c1c2cc(Br)ccc2n2c(N3CCCC3)nnc2n1CCSc1ccccc1 [Compound 72, 7-Bromo-4-(2-phenylsulfenyl-ethyl)-1-pyrrolidin-1-yl-4H-[1,2,4]triazolo[4,3-a]quinazolin-5-one]
- melting point: 122 °C

SMILES: COC(=O)C(c1ccccc1)n1c(=O)c2cc(Br)ccc2n2c(N3CCCC3)nnc12 (stereo not shown) [Compound 73, (7-Bromo-5-oxo-1-pyrrolidin-1-yl-5H-[1,2,4]triazolo[4,3-a]quinazolin-4-yl)-phenyl-acetic acid methyl ester]
- melting point: 184 °C

SMILES: N#Cc1ccc(Cn2c(=O)c3cc(Br)ccc3n3c(N4CCCCC4)nnc23)cc1 [Compound 74, 4-(7-Bromo-5-oxo-1-piperidin-1-yl-5H-[1,2,4]triazolo[4,3-a]quinazolin-4-ylmethyl)-benzonitrile]
- melting point: 200 °C

SMILES: O=c1c2cc(Br)ccc2n2c(N3CCSCC3)nnc2n1CC=Cc1cccnc1 [Compound 77, 7-Bromo-4(3-pyridin-3-yl-allyl)-1-thiomorpholin-4-yl-4H-[1,2,4]triazolo[4,3-a]quinazolin-5-one]
- melting point: 177 °C

SMILES: CN(C)c1nnc2n(Cc3ccc(CC(=O)O)cc3)c(=O)c3cc(Br)ccc3n12 [Compound 82, [4-(7-Bromo-1-dimethylamino-5-oxo-5H-[1,2,4]triazolo[4,3-a]quinazolin-4-ylmethyl)-phenyl]-acetic acid]
- melting point: 246 °C

SMILES: CN(C)c1nnc2n(Cc3cccnc3)c(=O)c3cc(Br)ccc3n12 [Compound 84, 7-Bromo-1-dimethylamino-4-pyridin-3-ylmethyl-4H-[1,2,4]triazolo[4,3-a]quinazolin-5-one]
- melting point: 142 °C

SMILES: CN(C)c1nnc2n(CC=Cc3ccccc3)c(=O)c3cc(Br)ccc3n12 [Compound 86, 7-Bromo-1-dimethylamino-4-(3-phenyl-allyl)-4H-[1,2,4]triazolo[4,3-a]quinazolin-5-one]
- melting point: 167 °C

SMILES: CN(C)c1nnc2n(CC=Cc3ccncc3)c(=O)c3cc(Br)ccc3n12 [Compound 87, 7-Bromo-1-dimethylamino-4-(3-pyridin-4-yl-allyl)-4H-[1,2,4]triazolo[4,3-a]quinazolin-5-one]
- melting point: 115 °C

SMILES: C#CCn1c(=O)c2cc(Br)ccc2n2c(N(C)C)nnc12 [Compound 88, 7-Bromo-1-dimethylamino-4-prop-2-ynyl-4H-[1,2,4]triazolo[4,3-a]quinazolin-5-one]
- melting point: 234 °C

SMILES: COC(=O)C(c1ccccc1)n1c(=O)c2cc(Br)ccc2n2c(N(C)C)nnc12 (stereo not shown) [Compound 90, (7-Bromo-1-dimethylamino-5-oxo-5H-[1,2,4]triazolo[4,3-a]quinazolin-4-yl)-phenyl-acetic acid methyl ester]
- melting point: 243 °C

SMILES: COC(=O)c1ccc(Cn2c(=O)c3cc(C)ccc3n3c(N4CCCC4)nnc23)cc1 [Compound 95, 4(7-Methyl-5-oxo-1-pyrrolidin-1-yl-5H-[1,2,4]triazolo[4,3-a]quinazolin-4-ylmethyl)-benzoic acid methyl ester]
- melting point: 230 °C

SMILES: Cc1ccc2c(c1)c(=O)n(Cc1cccnc1)c1nnc(N3CCCC3)n21 [Compound 97, 7-Methyl-4-pyridin-3-ylmethyl-1-pyrrolidin-1-yl-4H-[1,2,4)triazolo[4,3-a]quinazolin-5-one]
- melting point: 139 °C

SMILES: Cc1ccc2c(c1)c(=O)n(CC=Cc1cccnc1)c1nnc(N3CCSCC3)n21 [Compound 100, 7-Methyl-4-(3-pyridin-3-yl-allyl)-1-thiomorpholin-4-yl-4H-[1,2,4]triazolo[4,3-a]quinazolin-5-one]
- melting point: 230 °C

SMILES: Cc1ccc2c(c1)c(=O)n(CC=Cc1ccncc1)c1nnc(N(C)C)n21 [Compound 105, 1-Dimethylamino-7-methyl-4-(3-pyridin-4yl-allyl)-4H-[1,2,4]triazolo[4,3-a]quinazolin-5-one]
- melting point: 119 °C

SMILES: CN(C)c1nnc2n(Cc3ccc(C#N)cc3)c(=O)c3cc(C#N)ccc3n12 [Compound 107, 4-(4-Cyano-benzyl)-1-dimethylamino-5-oxo-4,5-dihydro-[1,2,4]triazolo[4,3-a]quinazoline-7-carbonitrile]
- melting point: 147 to 149 °C

SMILES: O=c1c2cc(O)ccc2n2c(N3CCCC3)nnc2n1C/C=C/c1ccccc1 [Compound 108, 7-Hydroxy-4-((E)-3-phenyl-allyl)-1-pyrrolidin-1-yl-4H-[1,2,4]triazolo[4,3-a]quinazolin-5-one]
- melting point: 295 °C (dec.)

SMILES: O=c1nc2n(CC=Cc3ccccc3)nc(N3CCCCCC3)n2c2ccccc12 [Compound 109, 1-(azepan-1-yl)-3-(3-phenylallyl)-3H-[1,2,4]triazolo[4,3-a]-quinazolin-5-one]
- melting point: 176 °C

SMILES: C=CCn1nc(N2CCCCCC2)n2c3ccc(Cl)cc3c(=O)nc12 [Compound 110, 3-Allyl-1-azepan-1-yl-7-chloro-3H-[1,2,4]triazolo[4,3-a]quinazolin-5-one]
- melting point: 173 °C

SMILES: O=c1nc2n(Cc3ccccc3)nc(N3CCCCCC3)n2c2ccc(Cl)cc12 [Compound 111, 1-(azepan-1-yl)-7-chloro-3-benzyl-3H-[1,2,4]triazolo[4,3-a]-quinazolin-5-one]
- melting point: 148 °C

SMILES: Cc1ccc(Cn2nc(N3CCCCCC3)n3c4ccc(Cl)cc4c(=O)nc23)cc1 [Compound 112, 1-Azepan-1-yl-7-chloro-3-(4-methyl-benzyl)-3H-[1,2,4]triazolo[4,3-a]quinazolin-5-one]
- melting point: 182 °C

SMILES: O=c1nc2n(Cc3ccccc3Cl)nc(N3CCCCCC3)n2c2ccc(Cl)cc12 [Compound 113, 1-(azepan-1-yl)-7-chloro-3-(2-chlorobenzyl)-3H-[1,2,4]triazolo[4,3-a]quinazolin-5-one]
- melting point: 228 °C

SMILES: O=c1nc2n(Cc3cccc(Cl)c3)nc(N3CCCCCC3)n2c2ccc(Cl)cc12 [Compound 114, 1-(azepan-1-yl)-7-chloro-3-(3-chlorobenzyl)-3H-[1,2,4]triazolo[4,3-a]quinazolin-5one]
- melting point: 166 °C
